Biological target: Hypoxia-inducible factor 1-alpha
Experiment: Inhibition of HIF-1 alpha transcriptional activity in human U-251 cells incubated for 24 hrs under hypoxia condition by luciferse reporter assay

COc1ccc(/C=C/C(=O)c2ccc3c(c2O)C=CC(C)(C)O3)cc1OCCN1CCC(C)CC1
IC50: 3.99 µM

COc1ccc(/C=C/C(=O)c2ccc3c(c2O)C=CC(C)(C)O3)cc1OCCN1CCOCC1
IC50: 10.6 µM

COc1ccc(/C=C/C(=O)c2ccc3c(c2O)C=CC(C)(C)O3)cc1OCCN1CCN(C)CC1
IC50: 3.6 µM

COc1ccc(/C=C/C(=O)c2ccc3c(c2O)C=CC(C)(C)O3)cc1OCCN1CCCC1
IC50: 2.38 µM

COc1ccc(/C=C/C(=O)c2ccc3c(c2O)C=CC(C)(C)O3)cc1OCCCN1CCCCC1
IC50: 5.38 µM

COc1ccc(/C=C/C(=O)c2ccc3c(c2O)C=CC(C)(C)O3)cc1OCCCN1CCC(C)CC1
IC50: 6.23 µM

COc1ccc(/C=C/C(=O)c2ccc3c(c2O)C=CC(C)(C)O3)cc1OCCCN1CCOCC1
IC50: 3.31 µM

COc1ccc(/C=C/C(=O)c2ccc3c(c2O)C=CC(C)(C)O3)cc1OCCCN1CCN(C)CC1
IC50: 5.19 µM

COc1ccc(/C=C/C(=O)c2ccc3c(c2O)C=CC(C)(C)O3)cc1OCCCN1CCCC1
IC50: 2.38 µM

CCN(CC)CCCOc1cc(/C=C/C(=O)c2ccc3c(c2O)C=CC(C)(C)O3)ccc1OC
IC50: 5.65 µM

COc1cc(/C=C/C(=O)c2ccc3c(c2O)C=CC(C)(C)O3)ccc1OCCN1CCCCC1
IC50: 5.4 µM

COc1cc(/C=C/C(=O)c2ccc3c(c2O)C=CC(C)(C)O3)ccc1OCCN1CCC(C)CC1
IC50: 5.75 µM

COc1cc(/C=C/C(=O)c2ccc3c(c2O)C=CC(C)(C)O3)ccc1OCCN1CCOCC1
IC50: 8.09 µM

COc1cc(/C=C/C(=O)c2ccc3c(c2O)C=CC(C)(C)O3)ccc1OCCN1CCN(C)CC1
IC50: 3.6 µM

COc1cc(/C=C/C(=O)c2ccc3c(c2O)C=CC(C)(C)O3)ccc1OCCN1CCCC1
IC50: 6.45 µM

CCN(CC)CCOc1ccc(/C=C/C(=O)c2ccc3c(c2O)C=CC(C)(C)O3)cc1OC
IC50: 6.29 µM

COc1cc(/C=C/C(=O)c2ccc3c(c2O)C=CC(C)(C)O3)ccc1OCCCN1CCCCC1
IC50: 5.55 µM

COc1cc(/C=C/C(=O)c2ccc3c(c2O)C=CC(C)(C)O3)ccc1OCCCN1CCC(C)CC1
IC50: 3.78 µM

COc1cc(/C=C/C(=O)c2ccc3c(c2O)C=CC(C)(C)O3)ccc1OCCCN1CCOCC1
IC50: 10.5 µM

COc1cc(/C=C/C(=O)c2ccc3c(c2O)C=CC(C)(C)O3)ccc1OCCCN1CCN(C)CC1
IC50: 5.76 µM

COc1cc(/C=C/C(=O)c2ccc3c(c2O)C=CC(C)(C)O3)ccc1OCCCN1CCCC1
IC50: 2.97 µM

CCN(CC)CCCOc1ccc(/C=C/C(=O)c2ccc3c(c2O)C=CC(C)(C)O3)cc1OC
IC50: 6.3 µM

COc1ccc(/C=C/C(=O)c2ccc3c(c2O)C=CC(C)(C)O3)cc1O
IC50: 6.98 µM

— BindingDB's records for doi:10.1016/j.ejmech.2023.115171 (Shenyang Pharmaceutical University, 2023)
